Laboratory results reported in ChEMBL document CHEMBL5726363, “Indoline compounds as aldosterone synthase inhibitors” (2017).

target: T1, Cytochrome P450 11B2, mitochondrial (Homo sapiens, UniProt P19099); experiment: HTRF-Based Assay : V79 cell lines stably expressing the either the human CYP11B2 or the human CYP11B1 enzyme were generated using a standard transfection protocol. V79 cells were transfected with plasmids pTriEx3-Hygro-hCyp11B2 or pTriEx3-Hygro-hCyp11B1 using Lipofectamine2000 reagent. V79 cells that stably express the human CYP11B2 or human CYP11B1 enzyme were selected for and maintained in DMEM supplemented with 10% FBS and 400 μg/mL hygromycin for 2 weeks. Single cell clones were generated by infinite dilution in DMEM supplemented with 10% FBS and 400 μg/mL hygromycin until single colonies were obtained. Clones V79-hCYP11B2-CLE9 and V79-hCYP11B1-CL8C7, were determined to produce the most aldosterone and cortisol, respectively, and were selected for inhibitor screening. For testing of inhibitors, cells were harvested at 80% confluency with 0.05% Trypsan-EDTA, washed once in PBS, and reconstituted in DMEM+0.1% BSA media at a cell concentration of 600,000 cells/mL for the CYP11B2 assay and 280,000 cells/mL for the CYP11B1 assay. 25 μL of cells were added to a 384 well tissue culture treated plate and mixed with 0.3 μL of inhibitor or DMSO (1% final DMSO concentration) for 1 hour at 37° C., 5% CO2. After pre-incubation with inhibitor, the reaction was initiated by adding 5 μL of substrate (final concentration of 125 nM 11-deoxycorticosterone for the CYP11B2 assay or 250 nM 11-deoxycortisol for the CYP11B1 assay). The reaction was carried out for 3 hours at 37° C., 5% CO2 and was stopped by harvesting the supernatants. The amount of product in the supernatant (aldosterone for CYP11B2 assay and cortisol for the CYP11B1 assay) was measured using HTRF-based assay kit (Aldosterone HTRF-CisBio#64ALDPEB, Cortisol HTRF-CisBio #63IDC002-CORT).
T1 sequence (P19099 whole entry): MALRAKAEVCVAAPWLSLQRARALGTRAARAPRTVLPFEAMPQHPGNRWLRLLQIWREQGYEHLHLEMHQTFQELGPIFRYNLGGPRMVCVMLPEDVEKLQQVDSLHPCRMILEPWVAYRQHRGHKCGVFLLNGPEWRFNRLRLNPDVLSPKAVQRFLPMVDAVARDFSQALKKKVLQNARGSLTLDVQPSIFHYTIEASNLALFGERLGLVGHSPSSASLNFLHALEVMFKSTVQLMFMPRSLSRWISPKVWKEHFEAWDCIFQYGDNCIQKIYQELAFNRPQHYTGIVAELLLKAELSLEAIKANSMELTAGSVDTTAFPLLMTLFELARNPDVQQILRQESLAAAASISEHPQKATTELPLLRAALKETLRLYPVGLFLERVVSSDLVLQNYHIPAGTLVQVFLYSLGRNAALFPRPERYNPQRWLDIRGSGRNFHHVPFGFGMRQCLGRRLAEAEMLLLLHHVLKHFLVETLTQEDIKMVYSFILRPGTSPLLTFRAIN

| SMILES | IC50 [nM] |
| --- | --- |
| O=C(N1CCc2cc(-c3cncc(F)c3)cc(Cl)c21)C(F)(F)F | 10.6 |
| CC(=O)N1CCc2cc(-c3cncc(F)c3C)cc(Cl)c21 | 1.4 |
| CC(C)C(=O)N1CCc2cc(-c3cncc4ccccc34)ccc21 | 30 |
| CC(=O)N1CCc2cc(-c3cnccc3C)cc(F)c21 | 0.2 |
| O=C(N1CCc2cc(-c3cncc(F)c3)cc(F)c21)C(F)(F)F | 17.4 |
